Where “and” joins values, the source holds several entries; their conditions need not be identical. Equal values may be shown once. Read-outs that look alike come from different tables or passages of the source.
How the values were obtained:
OAT3 = system: OAT3; set-up: method as in Yoshida et al.[32]; details: up to 10 μM; ref Yoshida et al.[32]; cited from earlier work
human OATP1B1 (SLCO1B1) = target: T1, human OATP1B1 (SLCO1B1) (Homo sapiens, UniProt Q9Y6L6); assay: OATP1B1 inhibition in transporter-expressing HEK293 cells, [3H]-estradiol 17β-D-glucuronide uptake (IC50 determination); details: OATP1B1-mediated transport of [3H]-estradiol 17β-D-glucuronide (0.02 μM), HEK293
T1 sequence (Q9Y6L6 1-691): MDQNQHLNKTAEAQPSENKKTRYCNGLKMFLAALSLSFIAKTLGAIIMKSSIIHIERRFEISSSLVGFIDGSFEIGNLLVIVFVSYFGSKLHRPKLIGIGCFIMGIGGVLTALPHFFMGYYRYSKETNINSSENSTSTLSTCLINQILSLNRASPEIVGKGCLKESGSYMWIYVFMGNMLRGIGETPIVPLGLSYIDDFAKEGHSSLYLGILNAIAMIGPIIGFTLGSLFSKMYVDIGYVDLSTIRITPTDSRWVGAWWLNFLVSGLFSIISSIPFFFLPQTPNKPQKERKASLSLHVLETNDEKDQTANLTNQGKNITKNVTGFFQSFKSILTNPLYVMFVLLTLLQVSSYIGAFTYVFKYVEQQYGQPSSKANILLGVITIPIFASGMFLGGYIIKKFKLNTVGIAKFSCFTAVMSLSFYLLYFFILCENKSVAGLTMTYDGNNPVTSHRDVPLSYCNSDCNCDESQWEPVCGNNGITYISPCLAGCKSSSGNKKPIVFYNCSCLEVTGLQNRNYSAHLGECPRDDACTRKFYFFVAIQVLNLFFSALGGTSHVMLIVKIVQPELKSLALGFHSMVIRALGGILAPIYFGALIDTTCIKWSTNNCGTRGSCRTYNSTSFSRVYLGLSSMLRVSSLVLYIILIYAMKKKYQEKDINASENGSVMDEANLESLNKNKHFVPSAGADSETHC
Protocol: (§1) OATP1B1, OATP1B3, NTCP and vector control cell lines were cultured and subsequent transporter assays conducted as described above using the same transporter‐specific probe substrates and incubation times. For OATP1B1, the probe substrate was [^3H]‐estradiol 17β‐D‐glucuronide (0.02 μM) incubated for 2 min, with rifamycin SV (100 μM) as positive control inhibitor. For IC50 determinations, the only difference to the method performed above was that the 15‐min pre‐incubation step contained a range of six concentrations of protease inhibitor drug, and subsequent incubations were conducted with the same six concentration levels of drug rather than with a single concentration.

human OATP1B3 (SLCO1B3) = target: T2, human OATP1B3 (SLCO1B3) (Homo sapiens, UniProt Q9NPD5); assay: OATP1B3 inhibition in transporter-expressing HEK293 cells, [3H]-estradiol 17β-D-glucuronide uptake (IC50 determination); details: for IC50: OATP1B3-mediated transport of [3H]-estradiol 17β-D-glucuronide (0.02 μM), HEK293
T2 sequence (Q9NPD5 1-702): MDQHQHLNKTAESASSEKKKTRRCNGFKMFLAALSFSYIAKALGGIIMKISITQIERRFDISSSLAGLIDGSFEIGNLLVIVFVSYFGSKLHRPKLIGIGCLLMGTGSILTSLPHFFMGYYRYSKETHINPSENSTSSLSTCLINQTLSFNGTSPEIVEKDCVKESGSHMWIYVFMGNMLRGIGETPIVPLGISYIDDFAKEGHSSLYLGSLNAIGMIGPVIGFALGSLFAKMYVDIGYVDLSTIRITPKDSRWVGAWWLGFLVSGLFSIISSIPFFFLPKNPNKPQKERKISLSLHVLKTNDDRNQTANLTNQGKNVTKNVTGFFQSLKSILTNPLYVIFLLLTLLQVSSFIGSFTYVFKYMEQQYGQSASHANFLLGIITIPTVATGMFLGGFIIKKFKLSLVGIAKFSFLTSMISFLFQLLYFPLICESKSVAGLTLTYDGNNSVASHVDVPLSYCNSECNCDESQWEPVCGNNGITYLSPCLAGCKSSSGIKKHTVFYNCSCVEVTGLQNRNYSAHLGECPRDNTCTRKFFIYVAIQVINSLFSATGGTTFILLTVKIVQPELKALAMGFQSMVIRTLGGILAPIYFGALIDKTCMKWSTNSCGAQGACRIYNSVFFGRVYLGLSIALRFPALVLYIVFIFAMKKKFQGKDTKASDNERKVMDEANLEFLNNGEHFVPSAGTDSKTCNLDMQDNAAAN
Protocol: as §1

human NTCP (SLC10A1) [1] = target: T3, human NTCP (SLC10A1) (Homo sapiens, UniProt Q14973); assay: NTCP inhibition in transporter-expressing HEK293 cells, [3H]-taurocholic acid uptake (IC50 determination); type: cell-based; details: for IC50: NTCP-mediated transport of [3H]-taurocholic acid (1 μM), HEK293
T3 construct: host or cells: HEK293 TransportoCells
T3 sequence (Q14973 1-349): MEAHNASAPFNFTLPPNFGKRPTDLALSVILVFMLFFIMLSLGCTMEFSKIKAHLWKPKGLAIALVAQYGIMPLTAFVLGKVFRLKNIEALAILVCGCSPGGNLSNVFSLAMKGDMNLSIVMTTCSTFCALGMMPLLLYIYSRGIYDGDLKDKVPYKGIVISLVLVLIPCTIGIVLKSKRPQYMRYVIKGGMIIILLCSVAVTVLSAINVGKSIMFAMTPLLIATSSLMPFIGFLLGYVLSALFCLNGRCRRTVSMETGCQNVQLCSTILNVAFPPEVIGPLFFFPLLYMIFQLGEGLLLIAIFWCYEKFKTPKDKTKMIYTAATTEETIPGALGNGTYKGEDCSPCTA

OATP1B3 = system: OATP1B3; set-up: method as in Vildhede et al.[33]; details: ref Vildhede et al.[33], cited from earlier work
human NTCP (SLC10A1) [2] = target: T3, human NTCP (SLC10A1); assay: NTCP single concentration inhibition screen in HEK293 cells; type: cell-based; details: ≥10x [Iin max u]: atazanavir 50 μM, darunavir 15 μM, lopinavir 5 μM, ritonavir 0.3 μM; [3H]-taurocholic acid 1 μM
[3] = cited from earlier work; for Cmax: read-out: [Cmax] mean steady-state maximum plasma concentration, total drug; for fu fraction unbound: in plasma, ref drug label accessed via Drugs@FDA database
[4] = IC50, determined values from different occasions (OATP1B1), single occasion
[5] = IC50 mean (OATP1B1), mean (±SD) of three occasions
[6] = IC50, determined values from different occasions (OATP1B3), single occasion
[7] = IC50 mean (OATP1B3), mean (±SD) of three occasions
[8] = mean (±SD) of three occasions, read-out: IC50 mean (NTCP)
[9] = single occasion, read-out: IC50, determined values from different occasions (NTCP)

Mean OATP1B3 IC50 (Ki), fold lower than previously published (human OATP1B3 (SLCO1B3); against value with atorvastatin as probe substrate [33]) | R value (NTCP) (human NTCP (SLC10A1) [1]; FDA static equation R = 1 + [Iin max u]/Ki, potential for interaction if ≥1.1) | SMILES | Inhibition of OAT3, published (OAT3) | IC50 (human OATP1B1 (SLCO1B1); [4]) | IC50 (human OATP1B1 (SLCO1B1); [5]) | IC50 (human OATP1B3 (SLCO1B3); [6]) | IC50 (human OATP1B3 (SLCO1B3); [7]) | IC50 (human NTCP (SLC10A1) [1]; [8]) | IC50 (human NTCP (SLC10A1) [1]; [9]) | Published IC50/Ki (OATP1B3) (OATP1B3; probe substrate atorvastatin) | Inhibition of NTCP-mediated probe substrate transport, single concentration screen (human NTCP (SLC10A1) [2]) | Cmax ([3]; clinical dose of Table 5, ref Elsby et al.[1]) | fu fraction unbound [3] | Inhibition of OATP1B3, published (OATP1B3; tested up to 10 μM) | Cmax ([3]; 400 mg, ref Elsby et al.[13])
3.9 fold | 1.07 | COC(=O)N[C@H](C(=O)N[C@@H](Cc1ccccc1)[C@@H](O)CN(Cc1ccc(-c2ccccn2)cc1)NC(=O)[C@@H](NC(=O)OC)C(C)(C)C)C(C)(C)C [atazanavir] | no inhibition | 0.583 µM and 0.69 µM | 0.734 µM | 1.75 µM and 2.41 µM and 1.43 µM | 1.86 µM | 65.6 µM | 55.9 µM and 63.8 µM and 77.1 µM | 7.3 (atorvastatin) μM | produced inhibition | 8.68 µM | 0.14 |  | 
 |  | Cc1cccc(C)c1OCC(=O)N[C@@H](Cc1ccccc1)[C@@H](O)C[C@H](Cc1ccccc1)NC(=O)[C@H](C(C)C)N1CCCNC1=O [lopinavir] | no inhibition | 0.291 µM and 0.207 µM and 0.162 µM | 0.22 µM | 5.14 µM and 5.04 µM and 4.95 µM | 5.04 ± 0.095 µM | 20.3 µM | 22.6 µM and 18.4 µM and 19.9 µM |  | produced inhibition |  | 0.02 | no inhibition | 14.6 µM

From publication PMC9944867, “Mechanistic in vitro studies indicate that the clinical drug–drug interactions between protease inhibitors and rosuvastatin are driven by inhibition of intestinal BCRP and hepatic OATP1B1 with minimal contribution from OATP1B3, NTCP and OAT3” (Pharmacology Research & Perspectives, 2023)
